From patent US5043353A, “A80789 polyether antibiotic” (Eli Lilly and Company, priority 1989, dated 1991)

System: Culture A80789
Experiment: Antibiotic sensitivity disc test on the producing culture
Type: cell-based, Streptomyces hygroscopicus
Conditions: ISP No. 2 agar
Protocol: Resistance to antibiotics was measured by padding antibiotic sensitivity discs onto the surface of seeded ISP No. 2 agar plates. Resistance was scored as (+) when no zone of inhibition was observed and as (-) when a zone of inhibition was observed.

Row | Compound | Resistance of culture to antibiotic (disc 10 mcg) | Resistance of culture to antibiotic (disc 30 mcg) | also measured
1 | CO[C@H]1/C=C/O[C@@]2(C)Oc3c(C)c(O)c4c(O)c(c(/C=N/N5CCN(C)CC5)c(O)c4c3C2=O)NC(=O)/C(C)=C\C=C\[C@H](C)[C@H](O)[C@@H](C)[C@@H](O)[C@@H](C)[C@H](OC(C)=O)[C@@H]1C [rifampin] | – | – | Resistance of culture to antibiotic (disc 5 mcg): resistant
2 | [H]/N=C(/N)N[C@H]1[C@H](O)[C@@H](O)[C@H](O[C@@H]2O[C@@H](C)[C@](O)(C=O)[C@H]2O[C@@H]2O[C@@H](CO)[C@H](O)[C@@H](O)[C@@H]2NC)[C@@H](N/C(N)=N\[H])[C@@H]1O [streptomycin] | sensitive | – | –
3 | CN(C)[C@@H]1C(=O)C(C(N)=O)=C(O)[C@@]2(O)C(=O)C3=C(O)c4c(O)cccc4[C@@](C)(O)[C@H]3C[C@@H]12 [tetracycline] | – | sensitive | –
4 | NC[C@H]1O[C@H](O[C@H]2[C@H](O)[C@@H](O[C@H]3O[C@H](CO)[C@@H](O)[C@H](N)[C@H]3O)[C@H](N)C[C@@H]2N)[C@H](N)C[C@@H]1O [tobramycin] | sensitive | – | –
5 | CN[C@H](CC(C)C)C(=O)N[C@H]1C(=O)N[C@@H](CC(N)=O)C(=O)N[C@H]2C(=O)N[C@H]3C(=O)N[C@H](C(=O)N[C@H](C(=O)O)c4cc(O)cc(O)c4-c4cc3ccc4O)[C@H](O)c3ccc(c(Cl)c3)Oc3cc2cc(c3O[C@@H]2O[C@H](CO)[C@@H](O)[C@H](O)[C@H]2O[C@H]2C[C@](C)(N)[C@H](O)[C@H](C)O2)Oc2ccc(cc2Cl)[C@H]1O [vancomycin] | – | sensitive | –
6 | gentamicin | sensitive | – | –
7 | neomycin | – | sensitive | –
